Measured values reported in publication PMC10444810, “Induction of open-form bile canaliculus formation by hepatocytes for evaluation of biliary drug excretion” (Communications Biology, 2023).
Several values for one entry are separate records, joined by “and”; a condition that tells them apart may be missing. Identical values can stand only once.

Tests used:
Format in all cases: in vitro ADME
Details in all cases: for Enzyme activity, Mean: mean of Well-1 to Well-4
[1] = target: T1, CYP3A4 (Homo sapiens, UniProt P08684); assay: Metabolic assay, cocktail substrate method (midazolam to 1’-hydroxymidazolam)
T1 construct: host or cells: PXB-cells (icHep: JFC, HUM181001B; sandwich culture: JFC)
T1 sequence (P08684 whole entry): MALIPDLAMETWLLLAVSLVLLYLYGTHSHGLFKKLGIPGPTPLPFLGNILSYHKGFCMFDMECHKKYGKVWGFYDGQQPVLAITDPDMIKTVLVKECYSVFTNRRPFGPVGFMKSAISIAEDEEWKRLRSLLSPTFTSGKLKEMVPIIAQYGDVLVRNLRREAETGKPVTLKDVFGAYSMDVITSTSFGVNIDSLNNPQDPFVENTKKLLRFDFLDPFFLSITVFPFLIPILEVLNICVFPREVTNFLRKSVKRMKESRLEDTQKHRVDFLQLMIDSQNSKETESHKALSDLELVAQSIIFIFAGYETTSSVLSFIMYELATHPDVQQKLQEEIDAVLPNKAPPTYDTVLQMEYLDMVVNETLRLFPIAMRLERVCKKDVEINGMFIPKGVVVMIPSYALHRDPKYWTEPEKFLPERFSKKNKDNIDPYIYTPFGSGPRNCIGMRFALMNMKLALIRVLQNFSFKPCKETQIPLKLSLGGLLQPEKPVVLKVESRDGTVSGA
Experimental: (§1) The metabolic activity of icHep and sandwich-cultured PXB-cells was measured using the cocktail substrate method of drug-metabolizing enzymes. The components of the cocktail are summarized in Supplementary Table 1. Assays were initiated by treating cells with TB containing cocktail substrates. Time point of each substrate was set when a linear increase in its metabolite production was observed. Concentrations of metabolites produced in the medium were measured by liquid chromatography-mass spectrometry (LC-MS/MS).

[2] = target: T2, CYP2E1 (Homo sapiens, UniProt P05181); assay: Metabolic assay, cocktail substrate method (chlorzoxazone to 6’-hydroxychlorzoxazone)
T2 construct: host or cells: PXB-cells (icHep: JFC, HUM181001B; sandwich culture: JFC)
T2 sequence (P05181 whole entry): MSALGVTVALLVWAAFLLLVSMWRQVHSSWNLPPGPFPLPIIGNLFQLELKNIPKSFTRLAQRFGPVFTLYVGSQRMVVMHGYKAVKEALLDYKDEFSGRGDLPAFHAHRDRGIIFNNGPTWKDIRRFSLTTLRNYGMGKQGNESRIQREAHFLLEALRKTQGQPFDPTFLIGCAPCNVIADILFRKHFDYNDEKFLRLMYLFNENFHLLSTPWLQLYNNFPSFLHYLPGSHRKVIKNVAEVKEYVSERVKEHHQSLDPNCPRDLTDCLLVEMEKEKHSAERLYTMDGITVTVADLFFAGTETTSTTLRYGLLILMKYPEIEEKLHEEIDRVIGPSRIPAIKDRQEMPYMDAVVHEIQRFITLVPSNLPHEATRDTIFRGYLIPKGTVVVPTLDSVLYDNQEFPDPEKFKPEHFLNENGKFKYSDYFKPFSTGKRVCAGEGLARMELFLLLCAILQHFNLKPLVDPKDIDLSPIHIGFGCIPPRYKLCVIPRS
Experimental: as §1

[3] = target: T3, CYP2D6 (Homo sapiens, UniProt P10635); assay: Metabolic assay, cocktail substrate method (bufuralol to 1’-hydroxybufuralol)
T3 construct: host or cells: PXB-cells (icHep: JFC, HUM181001B; sandwich culture: JFC)
T3 sequence (P10635 whole entry): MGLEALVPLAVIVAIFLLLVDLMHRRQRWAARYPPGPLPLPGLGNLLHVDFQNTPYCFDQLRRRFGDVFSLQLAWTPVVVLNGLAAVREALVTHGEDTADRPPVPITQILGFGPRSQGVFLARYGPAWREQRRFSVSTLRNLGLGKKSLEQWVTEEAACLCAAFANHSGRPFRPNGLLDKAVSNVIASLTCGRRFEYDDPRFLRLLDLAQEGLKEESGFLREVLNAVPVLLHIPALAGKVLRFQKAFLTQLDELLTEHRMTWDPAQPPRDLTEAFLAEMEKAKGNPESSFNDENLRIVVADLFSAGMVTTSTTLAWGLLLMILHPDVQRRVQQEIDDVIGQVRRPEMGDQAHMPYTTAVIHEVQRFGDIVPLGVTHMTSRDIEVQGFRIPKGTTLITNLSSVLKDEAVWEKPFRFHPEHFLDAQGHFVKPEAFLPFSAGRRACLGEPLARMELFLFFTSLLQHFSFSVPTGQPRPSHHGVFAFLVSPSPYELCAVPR
Experimental: as §1

[4] = PXB-cells (JFC), incubation time 15 min, single wells
[5] = PXB-cells (JFC), incubation time 30 min, single wells
[6] = PXB-cells (JFC), incubation time 45 min, single wells
[7] = PXB-cells (JFC), incubation time 60 min, single wells
[8] = PXB-cells (JFC), incubation time 90 min, single wells
[9] = PXB-cells (JFC), rate per single well
[10] = icHep (HUM18100B), incubation time 15 min, single wells
[11] = icHep (HUM18100B), incubation time 30 min, single wells
[12] = icHep (HUM18100B), incubation time 45 min, single wells
[13] = icHep (HUM18100B), incubation time 60 min, single wells
[14] = icHep (HUM18100B), incubation time 90 min, single wells
[15] = icHep (HUM18100B), rate per single well
[16] = icHep (JFC), incubation time 15 min, single wells
[17] = icHep (JFC), incubation time 30 min, single wells
[18] = icHep (JFC), incubation time 45 min, single wells
[19] = icHep (JFC), incubation time 60 min, single wells
[20] = icHep (JFC), incubation time 90 min, single wells
[21] = icHep (JFC), rate per single well

In the case of `OCc1ncc2n1-c1ccc(Cl)cc1C(c1ccccc1F)=NC2` [1'-hydroxymidazolam], the Enzyme activity [1, 4] is reported as 85.9964 pmol/106 cells and 107.28 pmol/106 cells and 107.269 pmol/106 cells and 94.4354 pmol/106 cells, the Enzyme activity [1, 5] is reported as 157.896 pmol/106 cells and 182.793 pmol/106 cells and 221.326 pmol/106 cells and 195.956 pmol/106 cells and the Enzyme activity [1, 6] is reported as 229.127 pmol/106 cells and 265.395 pmol/106 cells and 205.135 pmol/106 cells and 181.378 pmol/106 cells. For the same compound, the Enzyme activity [1, 7] was 216.024 pmol/106 cells and 232.078 pmol/106 cells and 207.606 pmol/106 cells and 244.165 pmol/106 cells, the Enzyme activity [1, 8] was 251.177 pmol/106 cells and 288.431 pmol/106 cells and 316.537 pmol/106 cells and 214.43 pmol/106 cells and the “Enzyme activity, Mean” value ([1]; PXB-cells (JFC)) was 6.05 pmol/min/106 cells. The Enzyme activity [1, 9] was 4.79 pmol/min/106 cells and 5.03 pmol/min/106 cells and 7.60 pmol/min/106 cells and 6.77 pmol/min/106 cells, the Enzyme activity [1, 10] was 124.221 pmol/106 cells and 126.279 pmol/106 cells and 141.412 pmol/106 cells and 115.91 pmol/106 cells and the Enzyme activity [1, 11] was 259.113 pmol/106 cells and 258.447 pmol/106 cells and 251.469 pmol/106 cells and 277.435 pmol/106 cells. For the same compound, the Enzyme activity [1, 12] was 382.492 pmol/106 cells and 333.832 pmol/106 cells and 305.042 pmol/106 cells and 320.283 pmol/106 cells, the Enzyme activity [1, 13] was 439.172 pmol/106 cells and 380.966 pmol/106 cells and 417.242 pmol/106 cells and 349.083 pmol/106 cells and the Enzyme activity [1, 14] was 536.397 pmol/106 cells and 514.134 pmol/106 cells and 491.294 pmol/106 cells and 551.51 pmol/106 cells. The “Enzyme activity, Mean” value ([1]; icHep (HUM18100B)) was 8.98 pmol/min/106 cells, the Enzyme activity [1, 15] was 8.99 pmol/min/106 cells and 8.81 pmol/min/106 cells and 7.34 pmol/min/106 cells and 10.8 pmol/min/106 cells and the Enzyme activity [1, 16] was 99.4818 pmol/106 cells and 103.678 pmol/106 cells and 120.741 pmol/106 cells and 92.847 pmol/106 cells. For the same compound, the Enzyme activity [1, 17] was 252.368 pmol/106 cells and 242.904 pmol/106 cells and 185.11 pmol/106 cells and 190.476 pmol/106 cells, the Enzyme activity [1, 18] was 266.706 pmol/106 cells and 248.159 pmol/106 cells and 239.281 pmol/106 cells and 225.504 pmol/106 cells and the Enzyme activity [1, 19] was 273.171 pmol/106 cells and 272.05 pmol/106 cells and 245.256 pmol/106 cells and 275.122 pmol/106 cells. For the same compound, the Enzyme activity [1, 20] was 330.978 pmol/106 cells and 294.591 pmol/106 cells and 323.573 pmol/106 cells and 259.768 pmol/106 cells and the “Enzyme activity, Mean” value ([1]; icHep (JFC)) was 7.57 pmol/min/106 cells.
With `O=c1[nH]c2cc(Cl)c(O)cc2o1` [6'-hydroxychlorzoxazone] the Enzyme activity [2, 4] was 2.306 pmol/106 cells and 2.95 pmol/106 cells and 3.355 pmol/106 cells and 2.895 pmol/106 cells, the Enzyme activity [2, 5] was 5.44 pmol/106 cells and 5.421 pmol/106 cells and 6.357 pmol/106 cells and 6.2485 pmol/106 cells and the Enzyme activity [2, 6] was 6.903 pmol/106 cells and 8.029 pmol/106 cells and 8.51 pmol/106 cells and 7.254 pmol/106 cells. For the same compound, the Enzyme activity [2, 7] was 7.3761 pmol/106 cells and 7.959 pmol/106 cells and 8.112 pmol/106 cells and 7.339 pmol/106 cells, the Enzyme activity [2, 8] was 7.477 pmol/106 cells and 10.4196 pmol/106 cells and 8.199 pmol/106 cells and 8.482 pmol/106 cells and the “Enzyme activity, Mean” value ([2]; PXB-cells (JFC)) was 0.160 pmol/min/106 cells. For the same compound, the Enzyme activity [2, 9] was 0.153 pmol/min/106 cells and 0.169 pmol/min/106 cells and 0.172 pmol/min/106 cells and 0.145 pmol/min/106 cells, the Enzyme activity [2, 10] was 10.0765 pmol/106 cells and 9.906 pmol/106 cells and 11.3983 pmol/106 cells and 9.755 pmol/106 cells and the Enzyme activity [2, 11] was 22.452 pmol/106 cells and 22.028 pmol/106 cells and 22.1618 pmol/106 cells and 20.005 pmol/106 cells. For the same compound, the Enzyme activity [2, 12] was 33.1164 pmol/106 cells and 28.7079 pmol/106 cells and 30.6951 pmol/106 cells and 27.4528 pmol/106 cells, the Enzyme activity [2, 13] was 42.0307 pmol/106 cells and 37.5801 pmol/106 cells and 42.224 pmol/106 cells and 33.7793 pmol/106 cells and the Enzyme activity [2, 14] was 67.3851 pmol/106 cells and 64.4144 pmol/106 cells and 55.8641 pmol/106 cells and 56.1231 pmol/106 cells. For the same compound, the “Enzyme activity, Mean” value ([2]; icHep (HUM18100B)) was 0.628 pmol/min/106 cells, the Enzyme activity [2, 15] was 0.710 pmol/min/106 cells and 0.598 pmol/min/106 cells and 0.673 pmol/min/106 cells and 0.530 pmol/min/106 cells and the Enzyme activity [2, 16] was 2.771 pmol/106 cells and 3.158 pmol/106 cells and 3.038 pmol/106 cells and 3.018 pmol/106 cells. For the same compound, the Enzyme activity [2, 17] was 4.046 pmol/106 cells and 4.392 pmol/106 cells and 5.788 pmol/106 cells and 6.302 pmol/106 cells, the Enzyme activity [2, 18] was 8.107 pmol/106 cells and 7.33 pmol/106 cells and 8.049 pmol/106 cells and 8.219 pmol/106 cells and the Enzyme activity [2, 19] was 8.619 pmol/106 cells and 8.336 pmol/106 cells and 6.8 pmol/106 cells and 10.6833 pmol/106 cells. The Enzyme activity [2, 20] was 10.5593 pmol/106 cells and 9.487 pmol/106 cells and 8.477 pmol/106 cells and 10.9673 pmol/106 cells, the “Enzyme activity, Mean” value ([2]; icHep (JFC)) was 0.164 pmol/min/106 cells and the Enzyme activity [2, 21] was 0.178 pmol/min/106 cells and 0.139 pmol/min/106 cells and 0.167 pmol/min/106 cells and 0.173 pmol/min/106 cells.
For `CC(O)c1cccc2cc(C(O)CNC(C)(C)C)oc12` (centres unmarked) [1'-hydroxybufuralol], the Enzyme activity [3, 4] was 16.9358 pmol/106 cells and 20.2476 pmol/106 cells and 18.9803 pmol/106 cells and 17.4477 pmol/106 cells, the Enzyme activity [3, 5] was 29.3048 pmol/106 cells and 32.2567 pmol/106 cells and 32.3369 pmol/106 cells and 36.5879 pmol/106 cells and the Enzyme activity [3, 6] was 57.2694 pmol/106 cells and 67.3705 pmol/106 cells and 63.1354 pmol/106 cells and 57.1013 pmol/106 cells. For the same compound, the Enzyme activity [3, 7] was 88.7619 pmol/106 cells and 86.626 pmol/106 cells and 83.8364 pmol/106 cells and 89.8476 pmol/106 cells, the Enzyme activity [3, 8] was 79.3357 pmol/106 cells and 85.9811 pmol/106 cells and 83.3593 pmol/106 cells and 74.6468 pmol/106 cells and the “Enzyme activity, Mean” value ([3]; PXB-cells (JFC)) was 1.57 pmol/min/106 cells. The Enzyme activity [3, 9] was 1.62 pmol/min/106 cells and 1.56 pmol/min/106 cells and 1.50 pmol/min/106 cells and 1.58 pmol/min/106 cells, the Enzyme activity [3, 10] was 20.6578 pmol/106 cells and 24.0318 pmol/106 cells and 24.5391 pmol/106 cells and 24.1229 pmol/106 cells and the Enzyme activity [3, 11] was 38.6716 pmol/106 cells and 36.9398 pmol/106 cells and 37.9846 pmol/106 cells and 33.7885 pmol/106 cells. For the same compound, the Enzyme activity [3, 12] was 56.8381 pmol/106 cells and 54.0547 pmol/106 cells and 51.5492 pmol/106 cells and 53.9902 pmol/106 cells, the Enzyme activity [3, 13] was 80.7041 pmol/106 cells and 78.1674 pmol/106 cells and 75.41 pmol/106 cells and 73.212 pmol/106 cells and the Enzyme activity [3, 14] was 107.294 pmol/106 cells and 123.561 pmol/106 cells and 104.675 pmol/106 cells and 114.288 pmol/106 cells. For the same compound, the “Enzyme activity, Mean” value ([3]; icHep (HUM18100B)) was 1.33 pmol/min/106 cells, the Enzyme activity [3, 15] was 1.40 pmol/min/106 cells and 1.37 pmol/min/106 cells and 1.25 pmol/min/106 cells and 1.31 pmol/min/106 cells and the Enzyme activity [3, 16] was 27.4857 pmol/106 cells and 27.0951 pmol/106 cells and 24.9076 pmol/106 cells and 26.1443 pmol/106 cells. For the same compound, the Enzyme activity [3, 17] was 41.2873 pmol/106 cells and 33.111 pmol/106 cells and 48.4523 pmol/106 cells and 44.4518 pmol/106 cells, the Enzyme activity [3, 18] was 63.4972 pmol/106 cells and 59.7018 pmol/106 cells and 65.0037 pmol/106 cells and 67.8302 pmol/106 cells and the Enzyme activity [3, 19] was 89.1933 pmol/106 cells and 91.8156 pmol/106 cells and 102.797 pmol/106 cells and 101.548 pmol/106 cells. The Enzyme activity [3, 20] was 106.28 pmol/106 cells and 107.567 pmol/106 cells and 125.014 pmol/106 cells and 113.156 pmol/106 cells, the “Enzyme activity, Mean” value ([3]; icHep (JFC)) was 1.55 pmol/min/106 cells and the Enzyme activity [3, 21] was 1.43 pmol/min/106 cells and 1.69 pmol/min/106 cells and 1.64 pmol/min/106 cells and 1.42 pmol/min/106 cells.
